Blank lines part the entries; values can stand above or below the molecule they belong to.
Assays:
CA‐125 = assay: Tumor marker CA-125 response (Gynecologic Cancer InterGroup definition); assay type: in vivo, Japanese patients
Experimental: (§1) During the screening visit, a complete medical history (including a detailed oncology history) was collected. Study visits occurred on days 1, 8 and 15 of cycle 1 and each subsequent cycle; patients also attended for a final visit and a 30‐day follow‐up visit. AE monitoring was performed at each visit; most visits also included a physical examination and ECOG performance status evaluation. Toxicities were graded according to the NCI Common Terminology Criteria for Adverse Events version 4.03. For the determination of veliparib, carboplatin and paclitaxel PK, plasma samples were collected at multiple time points within 24 h of the first morning dose of veliparib on day 1 of cycle 1. The PK of carboplatin and paclitaxel were evaluated only with veliparib co‐administration. Values of the PK parameters of veliparib, carboplatin and paclitaxel, including the maximum observed plasma concentration (C max), time to C max (T max) and AUC, were determined by using noncompartmental methods. In addition to tumor assessment at baseline, tumor response was assessed by using the Response Evaluation Criteria In Solid Tumors (RECIST) version 1.113 every 9 weeks from day 1 of cycle 1 and at the final visit. The tumor marker cancer antigen 125 (CA‐125) was evaluated on day 1 of each cycle and at the final visit.

[1] = Plasma pharmacokinetics on day 1 of cycle 1 (noncompartmental); design: AUC(0-inf): dose or concentration left out as unconfirmed
Experimental: as §1

[2] = test system: target lesions, ovarian cancer; assay: Tumor response by RECIST version 1.1; assay type: in vivo, Japanese patients
Experimental: as §1

[3] = test system: Japanese patients with newly diagnosed ovarian cancer; assay: Phase 1 safety/tolerability: treatment-emergent adverse events, DLT, MTD, RP2D
Experimental: This was a phase 1, open‐label, multicenter, dose‐escalation study to evaluate the tolerability, safety, PK and preliminary efficacy of oral veliparib in combination with carboplatin and weekly paclitaxel in Japanese patients with ovarian cancer. Patients were assigned to treatment with veliparib at either 100 mg (dose level 1 [DL1]) or 150 mg (DL2) b.i.d. on days 1–21 of a 21‐day cycle. […] After completion of cycle 1, subsequent cycles were not begun until the patient's ANC was ≥1500/mm^3 and the platelet count ≥100 000/mm^3. Patients with ANC 1000–1499/mm^3 or platelet count 75 000–99 000/mm^3 (or both) could proceed to the next cycle of therapy with a predefined dose modification (Table S1). On day 8 or 15 of each cycle, another dose modification guideline was applied (Table S2). The patient's participation in the study was discontinued upon the third occurrence of hematologic toxicity that required dose modification per protocol. Treatment could be postponed for up to 21 days because of toxicity; longer toxicity‐related delay led to study discontinuation. Reduction of carboplatin and paclitaxel doses was permitted based on the toxicity observed (Table S3), which could necessitate discontinuation of either agent. At the investigator's discretion, patients who discontinued veliparib were […] to discontinue the study but could continue to receive carboplatin and paclitaxel as standard of care. The trial was conducted in accordance with good clinical practice, the International Conference on Harmonization guidelines, and the 1964 Declaration of Helsinki and its later amendments; written informed consent was obtained from all patients before study enrollment.
Dose escalation proceeded according to a 3 + 3 design to determine dose‐limiting toxicities (DLT), the maximum tolerated dose (MTD) and the RP2D. A minimum of 3 patients were enrolled at DL1. If none of these patients experienced a DLT, 3 more patients would be enrolled at DL2. If 1 or 2 patients experienced a DLT at DL1, 3 more patients would be enrolled at the same dose level. If ≤2 of 6 patients experienced a DLT, dose escalation would proceed to DL2. If ≥3 patients experienced a DLT, dose escalation would be stopped, with the following exceptions: (i) if 3 of 6 patients at DL1 experienced DLT, 3 more patients would enter the DL and the cohort be expanded to 9 patients, depending on a review of the specific DLT observed and discussion with the investigators; and (ii) if 3 of 9 patients at DL1 experienced DLT, escalation to DL2 would proceed, but if >3 of 9 patients experienced DLT, then dose escalation would stop.
Dose‐limiting toxicities were determined based on events that occurred during the DLT evaluation period from day 1 of cycle 1 through pre‐dosing on day 1 of cycle 2. A patient was considered to be evaluable for DLT assessment if they had completed cycle 1 with the assigned regimen or had prematurely discontinued cycle 1 or experienced an adverse event (AE) related to veliparib. AE that occurred after the DLT evaluation period were considered in dose‐escalation decisions and tolerability assessment. The MTD was defined as the highest dose level at which ≤2 of 6 or ≤3 of 9 patients experienced a DLT. The RP2D was determined on the basis of assessment of the observed toxicities, the MTD, the overall safety profile of the regimen, and the PK of veliparib. In the event that the MTD was not reached, the RP2D was to be defined on the basis of safety and PK data and would not be higher than the maximum administered dose. Any of the following events that were considered to have a reasonable possibility of being related to the administration of veliparib were defined as DLT: grade 4 neutropenia lasting more than 7 days; grade 4 thrombocytopenia; febrile neutropenia; any grade ≥3 nonhematologic toxicities except nausea, vomiting and diarrhea; and transient metabolic toxicities such as glucose changes, hypokalemia or hypophosphatemia.

[4] = test system: non‐small cell lung cancer; design: method as in PMID 26433581; details: veliparib with carboplatin/paclitaxel, Japanese NSCLC patients, no more than 1 prior line of treatment; cited from earlier work
[5] = veliparib dose 100 mg, day 1 of cycle 1, N 3, mean ± SD
[6] = veliparib dose 150 mg, day 1 of cycle 1, N 6, mean ± SD
[7] = Total (both veliparib doses) + carboplatin/paclitaxel, N = 9, All grades
[8] = Total (both veliparib doses) + carboplatin/paclitaxel, N = 9, Grade 3 or 4
[9] = all 9 patients, regardless of relation to veliparib
[10] = veliparib 100 mg BID + carboplatin/paclitaxel, n = 3, All grades
[11] = veliparib 150 mg BID + carboplatin/paclitaxel, n = 6, All grades

Structure (SMILES): C[C@]1(c2nc3c(C(N)=O)cccc3[nH]2)CCCN1 [Veliparib]
CA‐125 response (Gynecologic Cancer InterGroup definition) (CA‐125; 8 of 9 patients): 89%
median best percentage change from baseline in CA‐125 (CA‐125; overall, range −99.79% to −34.96%): −89.33%
median best percentage change from baseline in CA‐125 (CA‐125; veliparib 100 mg b.i.d. cohort, range −97.31% to −65.25%): −94.24%
median best percentage change from baseline in CA‐125 (CA‐125; veliparib 150 mg b.i.d. cohort, range −99.79% to −34.96%): −84.87%
PK interaction between veliparib and carboplatin or paclitaxel ([1]; cross‐study comparison): no PK interaction
AUC0–8/dose [1, 5]: 37.2 ± 4.37 ng·h/mL/mg
C max/dose [1, 5]: 9.73 ± 1.63 ng/mL/mg
AUC0–8/dose [1, 6]: 36.7 ± 8.10 ng·h/mL/mg
C max/dose [1, 6]: 7.19 ± 1.16 ng/mL/mg
objective response rate ([2]; 5 assessed patients, veliparib plus carboplatin and paclitaxel): 100%
partial response ([2]; both cohorts, of 5 assessed patients): 4 patients
median best percentage change from baseline in the sum of target lesions ([2]; overall, range −100.00% to −50.00%): −53.51%
partial response ([2]; veliparib 100 mg b.i.d.): 1 patients
complete response ([2]; veliparib 100 mg b.i.d. cohort, of 5 assessed patients): One patient had a complete response
median best percentage change from baseline in the sum of target lesions ([2]; veliparib 100 mg b.i.d. cohort, range −100.00% to −53.51%): −76.75%
partial response ([2]; veliparib 150 mg b.i.d.): 3 patients
median best percentage change from baseline in the sum of target lesions ([2]; veliparib 150 mg b.i.d. cohort, range −90.29% to −50.00%): −51.57%
Nail disorder, TEAE [3, 7]: 2 (22) n (%)
Nausea, TEAE [3, 7]: 6 (67) n (%)
Neutropenia (including neutrophil count decreased), TEAE [3, 7]: 9 (100) n (%)
Peripheral sensory neuropathy (including neuropathy peripheral), TEAE [3, 7]: 7 (78) n (%)
Rash, TEAE [3, 7]: 2 (22) n (%)
Stomatitis, TEAE [3, 7]: 2 (22) n (%)
Thrombocytopenia (including platelet count decreased), TEAE [3, 7]: 5 (56) n (%)
Vomiting, TEAE [3, 7]: 4 (44) n (%)
Alopecia, TEAE [3, 8]: 0 n (%)
Anemia, TEAE [3, 8]: 5 (56) n (%)
Any AE, TEAE [3, 8]: 7 (78) n (%)
Arthralgia, TEAE [3, 8]: 0 n (%)
Constipation, TEAE [3, 8]: 0 n (%)
Decreased appetite, TEAE [3, 8]: 0 n (%)
Dry skin, TEAE [3, 8]: 0 n (%)
Dysgeusia, TEAE [3, 8]: 0 n (%)
Leukopenia (including white blood cell count decreased), TEAE [3, 8]: 4 (44) n (%)
Malaise, TEAE [3, 8]: 0 n (%)
Nail disorder, TEAE [3, 8]: 0 n (%)
Nasopharyngitis, TEAE [3, 8]: 0 n (%)
Nausea, TEAE [3, 8]: 0 n (%)
Neutropenia (including neutrophil count decreased), TEAE [3, 8]: 7 (78) n (%)
Peripheral sensory neuropathy (including neuropathy peripheral), TEAE [3, 8]: 0 n (%)
Rash, TEAE [3, 8]: 0 n (%)
Stomatitis, TEAE [3, 8]: 0 n (%)
Vomiting, TEAE [3, 8]: 0 n (%)
AE that led to death ([3]; all 9 patients): no AE that led to death
alopecia, TEAE of any grade [3, 9]: 89%
anemia, TEAE of any grade [3, 9]: 67%
anemia, grade 3 or 4 TEAE [3, 9]: 56%
malaise, TEAE of any grade [3, 9]: 67%
nausea, TEAE of any grade [3, 9]: 67%
neutropenia, TEAE of any grade [3, 9]: 100%
neutropenia, grade 3 or 4 TEAE ([3]; female, human, in vivo): 78%
peripheral sensory neuropathy, TEAE of any grade ([3]; female, human, in vivo): 78%
recommended phase 2 dose (RP2D) ([3]; in combination with carboplatin and weekly paclitaxel, determined on safety and PK data): 150 mg b.i.d.
dose‐limiting toxicities (DLT) ([3]; in vivo): No DLT were observed at any dose level
veliparib dose reduction ([3]; in vivo): No patient needed a veliparib dose reduction
veliparib discontinued because of a TEAE ([3]; overall, 6 of 9 patients): 67%
Alopecia, TEAE [3, 10]: 3 (100) n (%)
Anemia, TEAE [3, 10]: 2 (67) n (%)
Alopecia, TEAE [3, 11]: 5 (83) n (%)
Anemia, TEAE [3, 11]: 4 (67) n (%)
maximum tolerated dose (MTD) of the regimen ([3]; veliparib up to 150 mg b.i.d. with carboplatin and weekly paclitaxel): not reached
objective response rate [4]: 55%

Structure (SMILES): N.N.O=C([O-])C1(C(=O)[O-])CCC1.[Pt+2] [carboplatin]
C max ([1]; carboplatin measured as total platinum, AUC 6 mg/mL•min i.v. day 1 with veliparib, mean (SD)): 23.3 (4.28) μg/mL
AUC from time zero to infinity (AUC∞) ([1]; carboplatin measured as total platinum, i.v. day 1 with veliparib, mean (SD)): 5.30 (0.491) mg•min/mL
patients needing ≥1 carboplatin dose reduction ([3]; 7 of 9, beginning at cycle 2, due to hematologic toxicities): 78%

AUC(0-inf) ([1]; female, human, in vivo): 5320 ng·h/mL
Cmax ([1]; female, human, in vivo): 3300 ng/mL
Structure (SMILES): CC(=O)O[C@H]1C(=O)[C@@]2(C)[C@H]([C@H](OC(=O)c3ccccc3)[C@]3(O)C[C@H](OC(=O)[C@H](O)[C@@H](NC(=O)c4ccccc4)c4ccccc4)C(C)=C1C3(C)C)[C@]1(OC(C)=O)CO[C@@H]1C[C@@H]2O [paclitaxel]
